Assay results taken from US20220168295A1, “RIMEGEPANT FOR CGRP RELATED DISORDERS” (Biohaven Pharmaceutical Ireland DAC, priority 2018, published 2022).

System: subjects with Acute Migraines
Assay: Study 301 (BHV3000-301) Phase 3 placebo-controlled trial, rimegepant 75 mg tablet, acute treatment of migraine: efficacy and safety
Format: in vivo, human
Procedure: Clinical Trial—BHV3000-301: Phase 3: Double-Blind, Randomized, Placebo-Controlled, Safety and Efficacy Trial of BHV-3000 (Rimegepant) for the Acute Treatment of Migraine (ClinicalTrials.gov Identifier: NCT03235479). A phase 3 clinical study was conducted with 1490 participants, as follows. The purpose of this study was to compare the efficacy of BHV-3000 (rimegepant) versus placebo in subjects with Acute Migraines • Study Type: Interventional (Clinical Trial) • Actual Enrollment: 1490 participants • Allocation: Randomized • Intervention Model: Parallel Assignment • Intervention Model Description: Double-blind to Sponsor, Investigator and Subject Randomized Controlled Trial • Masking: Triple (Participant, Care Provider, Investigator) • Masking Description: Double-blind to Sponsor, Investigator and Subject • Primary Purpose: Treatment • Official Title: BHV3000-301: Phase 3: Double-Blind, Randomized, Placebo-Controlled, Safety and Efficacy Trial of BHV-3000 (Rimegepant) for the Acute Treatment of Migraine [table] • 1. Pain freedom of rimegepant (75 mg tablet) compared with placebo in the acute treatment of migraine will be measured using the number of evaluable subjects that report no pain at 2 hours post-dose. [Time Frame: Two hours post dose] • Pain will be measured on a 4 point Likert scale (0=none, 1=mild, 2=moderate, 3=severe) • 2. Freedom from the most bothersome symptom (MBS) of rimegepant (75 mg tablet) compared with placebo will be measured using the number of evaluable subjects that report the absence of their MBS at 2 hours post-dose. [Time Frame: Two hours post dose] • The MBS (nausea, phonophobia or photophobia) will measured using a binary scale (0=absent, 1=present). • 1. […] [Time Frame: 2 hours −24 hours post-dose] • Sustained Pain Freedom as measured by a 4 point numeric rating scale (None, Mild, Moderate, Severe) • 2. The difference between rimegepant (75 mg tablet) compared to placebo by tabulating the absence of photophobia at 2 hours post-dose in the subset of subjects that reported the presence of photophobia at headache baseline. [Time Frame: 2 hours post-dose] • Photophobia • 3. To evaluate rimegepant (75 mg tablet) compared to placebo by tabulating the number of subjects that report the absence of phonophobia at 2 hours post-dose in the subset of subjects that reported the presence of phonophobia at headache baseline. [Time Frame: 2 hours post-dose] • Phonophobia • 4. To measure the difference between rimegepant (75 mg tablet) compared to placebo on Pain Relief, at 2 hours post-dose, for those that report a pain level of moderate or severe at baseline and then report a pain level of none or mild. [Time Frame: 2 hours post-dose] • Pain Relief as measured by a 4 point numeric rating scale (None, Mild, Moderate, Severe) • 5. Freedom from Nausea by tabulating the number of subjects that report the absence of nausea at 2 hours post-dose in the subset of subjects that reported the presence of nausea at headache baseline. [Time Frame: 2 hours post-dose] • Freedom from Nausea • 6. The difference between rimegepant (75 mg tablet) compared to placebo on the probability of requiring rescue medication using the number of subjects that take rescue medication within […] administration of study medication (BHV3000 or placebo). [Time Frame: up to 24 hours post-dose] • Requiring Rescue Medication • 7. […] [Time Frame: 2 hours-24 hours post-dose] • Sustained Pain Freedom • 8. […] [Time Frame: 2 hours-24 hours post-dose] • Sustained Pain Relief as measured by a 4 point numeric rating scale (None, Mild, Moderate, Severe) • 9. […] [Time Frame: 2 hours-48 hours post-dose] • Sustained Pain Relief as measured by a 4 point numeric rating scale (None, Mild, Moderate, Severe) • 10. To measure the difference between rimegepant (75 mg tablet) relative to placebo on the proportion of subjects able to function normally, at 2 hours, using the number of subjects that self-report as “normal” on the functional disability scale. […]

N[C@@H]1c2cccnc2[C@H](OC(=O)N2CCC(n3c(=O)[nH]c4ncccc43)CC2)CC[C@H]1c1cccc(F)c1F [Rimegepant, [(5S,6S,9R)-5-amino-6-(2,3-difluorophenyl)-6,7,8,9-tetrahydro-5H-cyclohepta[b]pyridin-9-yl] 4-(2-oxo-3H-imidazo[4,5-b]pyridin-1-yl)piperidine-1-carboxylate] was tested, and the “SAEs related to the study drug” value was “No SAE was determined to be related to the study drug”, the “Transaminase level >5 times ULN, subjects” value was “no subject” and the “Adverse event dizziness, incidence” value (4/546) was 0.7%. For the same molecule, the “Adverse event nausea, incidence” value (5/546) was 0.9%, the “Serum ALT or AST levels greater than ULN, subjects” value (11/546) was 2.0% and the “Proportion of patients achieving normal function at 2 hours (functional disability) versus placebo” value (P<0.0001) was “greater proportion”. For the same molecule, the “Serious AEs (SAEs), subjects” value (n=2, both not dosed before onset) was 0.4% and the “Transaminase level >3 times ULN, subjects” value (one subject) was 0.2%.
